Experimental data as given in patent publication US9266904B2, “6-bridged heteroaryldihydropyrimidines for the treatment and prophylaxis of hepatitis B virus infection” (priority 2013, dated 2016).
Where two headings read alike, the source gives them in different places.

Experiments:
[1] = tested on: HBV replication in HepG2.2.15 cells; assay: Anti-HBV activity in vitro in HepG2.2.15 cells (extracellular HBV DNA by qPCR); type: cell-based; details: read-out: EC50
From the text: HepG2.2.15 and HepDE19 are stably-transfected cell lines containing the HBV genome. Both cell lines are derived from the hepatoblastoma cell line Hep G2 (American Type Culture Collection, ATCC® HB-8065™) by the published procedures described in references: M A Selles et al. Proc. Natl. Acad. Sci. USA 1987, 84, 1005-1009 and H Guo et al. Journal of Virology 2007, 81, 12472-12484, respectively. Both cell lines were maintained in Dulbecco's modified Eagle's medium (DMEM)-F12 medium supplemented with 10% fetal bovine serum, 100 U/mL penicillin, 100 μg/mL streptomycin, and 0.5 mg/mL of G418.
While HepG2.2.15 cells constitutively support HBV replication and production of virus particles, HepDE19 cells are inducible by tetracycline. Addition of 1 μg/mL tetracycline in culture medium suppresses HBV replication in HepDE19 cells, whereas switching to tetracycline-free medium resumes this process.
HepG2.2.15 cells were seeded into 96-well plates (3×10^4 cells in 100 μL media per well) and incubated overnight at 37° C. The test compounds were serially half-log diluted in DMSO, then diluted 100 times in culture media. 100 μL diluted compounds were added into the plates to reach 0.5% final concentration of DMSO in every well. Five days after compound treatment, culture supernatant was collected for further analysis.
For quantitative PCR detection of extracellular HBV DNA, 100 μL culture supernatant was collected and processed in MagNA Pure 96 Nucleic Acid Purification System (Roche Applied Science) for viral DNA extraction. The extracted samples were subjected to HBV DNA quantification by qPCR. The effective compound concentration at which HBV replication is inhibited by 50% (EC50) was determined.
The Examples were tested in the above assays as described herein and found to have EC50<1 μM in HepG2.2.15 assay.

[2] = Human microsomal clearance assay; type: in vitro ADME
Protocol: Microsomes were preincubated with test compound for 10 minutes at 37° C. in 100 mM phosphate buffer with pH 7.4. The reactions were initiated by adding NADPH regenerating system to give a final incubation volume of 400 μL. The incubations finally contained 1 μM test compound, 0.5 mg/mL liver microsomal protein, 3.0 mM glucose 6-phosphate, 1.0 mM NADP, 3.0 mM MgCl2 and 0.05 mg/mL glucose 6-phosphate dehydrogenase in 100 mM phosphate buffer with pH 7.4. After incubation times of 0, 3, 6, 9, 15 and 30 minutes, 50 μL, incubation was transferred to the quench solution containing the internal standard which was 2 μM tolbutamide. After precipitation and centrifugation, test compound concentrations in the samples were determined by LC-MS/MS. Controls of no NADPH regenerating system at zero and 30 minutes were also prepared and analyzed.

[3] = Hepatitis B virus, HepG2.2.15, Anti-HBV activity in HepG2.2.15 cells

Work on “2-[(1R,5R,7S)-9-[[(4S)-4-(3,4-difluoro-2-methyl-phenyl)-5-methoxycarbonyl-2-thiazol-2-yl-1,4-dihydropyrimidin-6-yl]methyl]-6,6-difluoro-3-oxa-9-azabicyclo[3.3.1]nonan-7-yl]acetic acid or 2-[(1S,5S,7R)-9-[[(4S)-4-(3,4-difluoro-2-methyl-phenyl)-5-methoxycarbonyl-2-thiazol-2-yl-1,4-dihydropyrimidin-6-yl]methyl]-6,6-difluoro-3-oxa-9-azabicyclo[3.3.1]nonan-7-yl]acetic acid [Example 132]” yielded an EC50 ([1]; Anti-HBV activity in HepG2.2.15 cells) of 10.3 nM and a CLh ([2]; human microsomal clearance) of 2.6 mL/min/kg.

`COC(=O)C1=C(CN2C3CC(F)(F)C2C[C@](O)(CC(=O)O)C3)NC(c2nccs2)=N[C@H]1c1ccc(F)cc1Cl` (single isomer, unassigned) [Example 117] gave an EC50 [1, 3] of 40.2 nM and a CLh ([2]; human, 1 μM, pH 7.4) of 1.8 mL/min/kg.

In the case of `COC(=O)C1=C(CN2C3COCC2CC(OC(C)=O)C3)NC(c2nccs2)=N[C@H]1c1ccc(F)cc1Cl` (stereo partly drawn) [Example 8, (R)-6-(7-Acetoxy-3-oxa-9-aza-bicyclo[3.3.1]non-9-ylmethyl)-4-(2-chloro-4-fluoro-phenyl)-2-thiazol-2-yl-1,4-dihydro-pyrimidine-5-carboxylic acid methyl ester], the CLh ([2]; human, 1 μM, pH 7.4) is reported as 0 mL/min/kg.

Work on `COC(=O)C1=C(CN2C3COCC2CN(C(N)=O)C3)NC(c2nccs2)=N[C@H]1c1ccc(F)cc1Cl` [Example 18, (R)-6-(7-Carbamoyl-3-oxa-7,9-diaza-bicyclo[3.3.1]non-9-ylmethyl)-4-(2-chloro-4-fluoro-phenyl)-2-thiazol-2-yl-1,4-dihydro-pyrimidine-5-carboxylic acid methyl ester] yielded an EC50 [1, 3] of 20 nM and a CLh ([2]; human, 1 μM, pH 7.4) of 1.3 mL/min/kg.

For `COC(=O)C1=C(CN2C3COCC2CN(C(=O)CO)C3)NC(c2nccs2)=N[C@H]1c1ccc(F)cc1Cl` [Example 21, (R)-4-(2-Chloro-4-fluoro-phenyl)-6-[7-(2-hydroxy-acetyl)-3-oxa-7,9-diaza-bicyclo[3.3.1]non-9-ylmethyl]-2-thiazol-2-yl-1,4-dihydro-pyrimidine-5-carboxylic acid methyl ester], the EC50 [1, 3] was 20 nM and the CLh ([2]; human, 1 μM, pH 7.4) was 4.3 mL/min/kg.

Compound `COC(=O)C1=C(CN2[C@@H]3COC[C@H]2C[C@@H](NC(N)=O)C3)NC(c2nccs2)=N[C@H]1c1ccc(F)cc1Cl` [Example 57, Methyl (4R)-4-(2-chloro-4-fluoro-phenyl)-2-thiazol-2-yl-6-[[(1S,5R)-7-endo-ureido-3-oxa-9-azabicyclo[3.3.1]nonan-9-yl]methyl]-1,4-dihydropyrimidine-5-carboxylate] has an EC50 [1, 3] of 21.9 nM and a CLh ([2]; human, 1 μM, pH 7.4) of 5.0 mL/min/kg.

`COC(=O)C1=C(CN2C3COCC2C(F)c2oncc23)NC(c2nccs2)=N[C@H]1c1ccc(F)cc1Cl` (stereo partly drawn) [Example 106, (4R)-4-(2-Chloro-4-fluoro-phenyl)-6-(7-fluoro-5,10-dioxa-4,12-diaza-tricyclo[6.3.1.0*2,6*]dodeca-2(6),3-dien-12-ylmethyl)-2-thiazol-2-yl-1,4-dihydropyrimidine-5-carrboxylic acid methyl ester] showed an EC50 [1, 3] of 8.5 nM.

With `COC(=O)C1=C(CN2[C@H]3C[C@H](CC(=O)O)C[C@@H]2C(F)(F)C3)NC(c2nccs2)=N[C@H]1c1ccc(F)c(F)c1C` [Example 112, 2-[(1S,3S,5R)-8-[[(4S)-4-(3,4-difluoro-2-methyl-phenyl)-5-methoxycarbonyl-2-thiazol-2-yl-1,4-dihydropyrimidin-6-yl]methyl]-6,6-difluoro-8-azabicyclo[3.2.1]octan-3-yl]acetic acid] the EC50 [1, 3] was 35.8 nM.

For `COC(=O)C1=C(CN2C3CC(F)(F)C2C[C@](O)(CC(=O)O)C3)NC(c2nccs2)=N[C@H]1c1ccc(F)c(F)c1C` (stereo partly drawn) [Example 119, 2-[(3S)-8-[[(4S)-4-(3,4-difluoro-2-methyl-phenyl)-5-methoxycarbonyl-2-thiazol-2-yl-1,4-dihydropyrimidin-6-yl]methyl]-6,6-difluoro-3-hydroxy-8-azabicyclo[3.2.1]octan-3-yl]acetic acid], the EC50 [1, 3] was 21.3 nM.

Work on `COC(=O)C1=C(CN2C3CC(F)(F)C2C[C@](O)(CC(=O)O)C3)NC(c2nccs2)=N[C@H]1c1cccc(F)c1Cl` (stereo partly drawn) [Example 121, 2-[(3S)-8-[[(4R)-4-(2-chloro-3-fluoro-phenyl)-5-methoxycarbonyl-2-thiazol-2-yl-1,4-dihydropyrimidin-6-yl]methyl]-6,6-difluoro-3-hydroxy-8-azabicyclo[3.2.1]octan-3-yl]acetic acid] yielded an EC50 [1, 3] of 33 nM.

With `COC(=O)C1=C(CN2C3CNC(=O)C2COC3)NC(c2nccs2)=N[C@H]1c1ccc(F)cc1Cl` (stereo partly drawn) [Example 133, Methyl (4R)-4-(2-chloro-4-fluoro-phenyl)-6-[(6-oxo-3-oxa-7,9-diazabicyclo[3.3.1]nonan-9-yl)methyl]-2-thiazol-2-yl-1,4-dihydropyrimidine-5-carboxylate] the EC50 [1, 3] was 34 nM.

`CCOC(=O)CC1(O)CC2COCC(C1O)N2CC1=C(C(=O)OC)[C@H](c2ccc(F)cc2Cl)N=C(c2nccs2)N1` (stereo partly drawn) [Example 138, Methyl (4R)-4-(2-chloro-4-fluoro-phenyl)-6-[[7-(2-ethoxy-2-oxo-ethyl)-6,7-dihydroxy-3-oxa-9-azabicyclo[3.3.1]nonan-9-yl]methyl]-2-thiazol-2-yl-1,4-dihydropyrimidine-5-carboxylate] gave an EC50 [1, 3] of 58.2 nM.

`CCOC(=O)C1=C(CN2C3COCC2CC(N)(C(=O)O)C3)NC(c2nccs2)=N[C@H]1c1cccc(F)c1F` (stereo partly drawn) [Example 140, 7-amino-9-[[(4R)-4-(2,3-difluorophenyl)-5-ethoxycarbonyl-2-thiazol-2-yl-1,4-dihydropyrimidin-6-yl]methyl]-3-oxa-9-azabicyclo[3.3.1]nonane-7-carboxylic acid] showed an EC50 [1, 3] of 103 nM.

In the case of `CCOC(=O)C1=C(CN2C3COCC2CC(N)(C(=O)O)C3)NC(c2nccs2)=N[C@H]1c1ccc(F)cc1Br` (stereo partly drawn) [Example 141, 7-amino-9-[[(4R)-4-(2-bromo-4-fluoro-phenyl)-5-ethoxycarbonyl-2-thiazol-2-yl-1,4-dihydropyrimidin-6-yl]methyl]-3-oxa-9-azabicyclo[3.3.1]nonane-7-carboxylic acid], the EC50 [1, 3] is reported as 271 nM.

`COC(=O)C1=C(CN2CC3CCC(C2)O3)NC(c2nccs2)=N[C@H]1c1ccc(F)cc1Cl` [Example 142, Methyl (4R)-4-(2-chloro-4-fluoro-phenyl)-6-(8-oxa-3-azabicyclo[3.2.1]octan-3-ylmethyl)-2-thiazol-2-yl-1,4-dihydropyrimidine-5-carboxylate] gave an EC50 [1, 3] of 130 nM.

With `COC(=O)C1=C(CN2CC3CC2CC3(F)F)NC(c2nccs2)=N[C@H]1c1ccc(F)cc1Cl` (stereo partly drawn) [Example 143, Methyl (4R)-4-(2-chloro-4-fluoro-phenyl)-6-[(5,5-difluoro-2-azabicyclo[2.2.1]heptan-2-yl)methyl]-2-thiazol-2-yl-1,4-dihydropyrimidine-5-carboxylate] the EC50 [1, 3] was 41 nM.

`COC(=O)C1=C(CN2CC3CC2C(F)(F)C3)NC(c2nccs2)=N[C@H]1c1ccc(F)cc1Cl` (stereo partly drawn) [Example 144, Methyl (4R)-4-(2-chloro-4-fluoro-phenyl)-6-[(5,5-difluoro-3-azabicyclo[2.2.1]heptan-3-yl)methyl]-2-thiazol-2-yl-1,4-dihydropyrimidine-5-carboxylate] showed an EC50 [1, 3] of 94 nM.

In the case of `COC(=O)C1=C(CN2C3CC(F)(F)C2C[C@@H]3C(=O)O)NC(c2nccs2)=N[C@H]1c1ccc(F)cc1Cl` (stereo partly drawn) [Example 151, (5S)-7-[[(4R)-4-(2-chloro-4-fluoro-phenyl)-5-methoxycarbonyl-2-thiazol-2-yl-1,4-dihydropyrimidin-6-yl]methyl]-2,2-difluoro-7-azabicyclo[2.2.1]heptane-5-carboxylic acid], the EC50 [1, 3] is reported as 29.5 nM.
